Source: patent publication US20160045505A1, “COMPOUNDS AND COMPOSITIONS FOR THE TREATMENT OF PARASITIC DISEASES” (NOVARTIS AG, priority 2013, published 2016)

Experiments:
[1] = tested on: Leishmania donovani axenic amastigote parasites; test: Leishmania donovani axenic amastigote proliferation assay (Cell TiterGlo luminescence, 2 day incubation); format: cell-based; conditions: Leishmania donovani, L. donovani axenic amastigotes; read-out: L. donovani amastigotes EC50
[2] = tested on: L. donovani HU3 strain in mouse peritoneal macrophages; test: Assay for proliferation of Leishmania parasites in infected mouse peritoneal macrophages (SybrGreen staining, high-content imaging, 5 days); format: cell-based, Leishmania donovani; conditions: Leishmania donovani, Peritoneal macrophage, L. donovani in mouse peritoneal macrophages; read-out: L. donovani Macrophage EC50
[3] = tested on: Trypanosoma brucei Lister 427 strain, bloodstream form; test: Assay for proliferation of kinetoplastid parasite Trypanosoma brucei (Cell Titer Glo, 48 hours); format: cell-based; conditions: Trypanosoma brucei, T. brucei Lister 427 bloodstream form; read-out: T. brucei EC50
Summary of the method: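 Bloodstream-form T. brucei Lister 427 in HMI-9 medium was exposed to compound (DMSO vehicle) for 48 hours at 37° C, 5% CO2. Parasite growth was read as ATP by CellTiter-Glo luminescence, with EC50 calculated from percent inhibition.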

[4] = tested on: Trypanosoma cruzi amastigotes (Tulahuen strain expressing Lac-Z) cultured in 3T3 fibroblast cells; test: microbe, parasite or virus in culture; format: cell-based; conditions: Trypanosoma cruzi, TULAHUEN, Fibroblast, T. cruzi amastigotes in 3T3 fibroblast cells; read-out: T cruzi EC50

| Compound | EC50 [1] | EC50 [2] | EC50 [3] | EC50 [4] |
| --- | --- | --- | --- | --- |
| Cc1ncc(C(=O)Nc2ccc(F)c(-c3cn4cc(N(C)C)cnc4n3)c2)o1 [Compound 467] | 147 nM | 266 nM | 166 nM | 129 nM |
| CN(C)c1cnc2nc(-c3cc(NC(=O)N4CC[C@@H](F)C4)ccc3F)cn2c1 [Compound 468] | 87 nM | 230 nM | 15 nM | 146 nM |
| CN(C)c1cnc2nc(-c3cc(NC(=O)N4CCC4)ccc3F)cn2c1 [Compound 469] | 143 nM | 230 nM | 55 nM | 146 nM |
| Cc1nc(C)c(C(=O)Nc2ccc(F)c(-c3cn4cc(N(C)C)cnc4n3)c2)o1 [Compound 470] | 252 nM | 689 nM | 159 nM | 148 nM |
| CCN(CC)c1cnc2nc(-c3cc(NC(=O)c4oc(C)nc4C)ccc3F)cn2c1 [Compound 471] | 601 nM | 637 nM | 159 nM | 147 nM |
| CC(C)CNc1cnc2nc(-c3cc(NC(=O)N4CCCC4)ccc3F)cn2c1 [Compound 472] | 210 nM | 737 nM | 58 nM | 297 nM |
| CCCNc1cnc2nc(-c3cc(NC(=O)N4CCCC4)ccc3F)cn2c1 [Compound 474] | 292 nM | 1110 nM | 203 nM | 478 nM |
| O=C(Nc1ccc(F)c(-c2cn3cc(NC4CCOCC4)cnc3n2)c1)N1CCCC1 [Compound 475] | 1310 nM | 5980 nM | 217 nM | 9160 nM |
| CC(C)Nc1cnc2nc(-c3cc(NC(=O)N4CCCC4)ccc3F)cn2c1 [Compound 476] | 153 nM | 358 nM | 42 nM | 152 nM |
| CC(C)(C)OC(=O)N[C@H]1CC[C@H](CNc2cnc3nc(-c4cc(NC(=O)N5CCCC5)ccc4F)cn3c2)CC1 [Compound 477] | 751 nM | 425 nM | 55 nM | 386 nM |
| O=C(Nc1ccc(F)c(-c2cn3cc(NCCC(F)(F)F)cnc3n2)c1)N1CCCC1 [Compound 478] | 4720 nM | > 16400 nM | 533 nM | 5520 nM |
| Cc1nc(C)c(C(=O)Nc2ccc(F)c(-c3cn4cc(NCc5ncc[nH]5)cnc4n3)c2)o1 [Compound 479] | > 22800 nM | > 50000 nM | 41900 nM | > 20000 nM |
| Cc1nc(C)c(C(=O)Nc2ccc(F)c(-c3cn4cc(NCc5c[nH]cn5)cnc4n3)c2)o1 [Compound 480] | > 22300 nM | > 50000 nM | 8420 nM | > 20000 nM |
| Cc1nc(C)c(C(=O)Nc2ccc(F)c(-c3cn4cc(NC5CCC5)cnc4n3)c2)o1 [Compound 482] | 569 nM | 1010 nM | 494 nM | 547 nM |
| Cc1nc(C)c(C(=O)Nc2ccc(F)c(-c3cn4cc(N(C)C(C)C)cnc4n3)c2)o1 [Compound 483] | 169 nM | 196 nM | 70 nM | 74 nM |
| CC(C)OC(=O)Nc1cnc2nc(-c3cc(Nc4ccccn4)ccc3F)cn2c1 [Compound 484, isopropyl (2-(2-fluoro-5-(pyridin-2-ylamino)phenyl)imidazo[1,2-a]pyrimidin-6-yl)carbamate] | 1480 nM | 9110 nM | 1360 nM | 361 nM |
| CC(C)OC(=O)Nc1cnc2nc(-c3cc(Nc4ncccc4C(F)(F)F)ccc3F)cn2c1 [Compound 485] | > 25000 nM | 11500 nM | > 50000 nM | 1970 nM |
| CC(C)OC(=O)Nc1cnc2nc(-c3cc(Nc4ncccc4OC(F)(F)F)ccc3F)cn2c1 [Compound 487] | > 25000 nM | > 50000 nM | > 50000 nM | > 16600 nM |
| Cc1nc(C)c(C(=O)Nc2ccc(F)c(-c3cn4cc(Nc5ncccc5C(F)(F)F)cnc4n3)c2)o1 [Compound 488] | 32 nM | 132 nM | 58 nM | 36 nM |
| CC1(O)CN(c2cnc3nc(-c4cc(NC(=O)N5CCCC5)ccc4Cl)cn3c2)C1 [Compound 489] | 1770 nM | 7790 nM | 152 nM | 6710 nM |
| Cc1nc(C)c(C(=O)Nc2ccc(F)c(-c3cn4cc(N5C[C@@H](C)O[C@@H](C)C5)cnc4n3)c2)o1 [Compound 491] | 234 nM | 743 nM | 140 nM | 296 nM |
| Cc1nc(C)c(C(=O)Nc2ccc(F)c(-c3cn4cc(N5CCC[C@@H]5C(F)(F)F)cnc4n3)c2)o1 [Compound 492] | 841 nM | 1520 nM | 472 nM | 310 nM |
